Assay results: patent EP3131902B1, “COMPOUNDS AS MODULATORS OF ROR GAMMA” (Boehringer Ingelheim International GmbH, priority 2014, dated 2015)

Biological target: T1, RORγ (Homo sapiens, UniProt P51449)
T1 construct: expressed in transfected cells; host or cells: HEK 293 cells, transiently transfected
T1 sequence (P51449 269-508 limits assumed): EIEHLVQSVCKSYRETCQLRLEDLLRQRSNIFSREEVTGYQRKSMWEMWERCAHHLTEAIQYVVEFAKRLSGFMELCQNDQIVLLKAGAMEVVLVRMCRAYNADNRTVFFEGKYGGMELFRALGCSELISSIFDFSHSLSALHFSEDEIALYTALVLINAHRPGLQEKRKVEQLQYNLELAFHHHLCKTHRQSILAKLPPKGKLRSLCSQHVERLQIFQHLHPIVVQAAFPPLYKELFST
Experiment: Reporter Gene Assay (RGA): nuclear receptor transactivation assay, inhibition of RORγ transactivation of a luciferase reporter in transiently transfected HEK 293 cells
Format: cell-based
Details: not given

`CCS(=O)(=O)c1ccc(CNc2nc3cnc(-c4c(C)ncnc4C4CC4)nc3n([C@@H](C)C(F)(F)F)c2=O)cc1` [Example 177] and `CCc1ncnc(C2CC2)c1-c1ncc2nc(NCc3ccc(S(C)(=O)=O)cc3)c(=O)n([C@H](C)CC)c2n1` [Example 191] are within 1.5-fold of each other in IC50: 73 nM for the first, 86 nM for the second.

First: CCS(=O)(=O)c1ccc(CNc2nc3cnc(-c4c(OC)ncnc4C4CC4)nc3n(CC(C)(C)F)c2=O)nc1 [Example 106]
Second: CC[C@H](C)n1c(=O)c(NCc2ccc(S(N)(=O)=O)cn2)nc2cnc(-c3c(OC)ncnc3C3CC3)nc21 [Example 122]
The IC50 of the first is 7.7-fold higher: 1150 nM for the first, 150 nM for the second.

`CCS(=O)(=O)N1C[C@@H]2C(CNc3nc4cnc(-c5c(C)ncnc5C5CC5)nc4n([C@@H](C)C4CC4)c3=O)[C@@H]2C1` (stereo partly shown) [Example 163] gave an IC50 of 160 nM.

Same assay, conditions: read-out: RGA IC50

First: CCS(=O)(=O)c1ccc(CNc2nc3cnc(-c4c(C)ncnc4C4CC4)nc3n(C3CCCC3=O)c2=O)nc1 (stereo not shown) [Example 119]
Second: CCS(=O)(=O)c1ccc(CNc2nc3cnc(-c4c(OC)ncnc4C4CC4)nc3n(C3CCCC3=O)c2=O)nc1 (stereo not shown) [Example 120]
The IC50 of the first is 1.7-fold higher: 720 nM for the first, 420 nM for the second. The second is the more potent here.

First: CCS(=O)(=O)c1ccc(CNc2nc3cnc(-c4c(C)ncnc4C4CC4)nc3n(-c3ccccc3)c2=O)nc1 [Example 48]
Second: CCS(=O)(=O)c1ccc(CNc2nc3cnc(-c4c(C)ncnc4C4CC4)nc3n(CC(C)C)c2=O)nc1 [Example 252]
The IC50 of the first is 12-fold higher: 3800 nM for the first, 325 nM for the second. The second is the more potent here.

Going from `CCS(=O)(=O)N1CCC(CNc2nc3cnc(-c4c(OC)ncnc4C4CC4)nc3n([C@H](C)C3CC3)c2=O)CC1` [Example 76] to `COCCS(=O)(=O)N1CCC(CNc2nc3cnc(-c4c(OC)ncnc4C4CC4)nc3n([C@@H](C)C3CC3)c2=O)CC1` [Example 169], the IC50 falls from 1600 nM to 145 nM (11-fold). The second is the more potent here.

Going from `COc1ncnc(C2CC2)c1-c1ncc2nc(NCc3ccc(S(C)(=O)=O)cc3)c(=O)n([C@H]3CCC[C@@H]3OC)c2n1` [Example 230] to `CCS(=O)(=O)c1ccc(CNc2nc3cnc(-c4c(OC)ncnc4C4CC4)nc3n(C3CC3)c2=O)cc1` [Example 43], the IC50 rises from 270 nM to 2600 nM (9.6-fold).

First: CC[C@@H](C)n1c(=O)c(NCc2ccc(S(=O)(=O)CC)nc2)nc2cnc(-c3c(C4CC4)ncnc3C3CC3)nc21 [Example 224]
Second: CCS(=O)(=O)c1ccc(CNc2nc3cnc(-c4c(C5CC5)ncnc4C4CC4)nc3n(C3CC3)c2=O)cn1 [Example 51]
The IC50 of the first is 63-fold lower: 120 nM for the first, 7600 nM for the second. The first is the more potent here.

`CC[C@@H](C)n1c(=O)c(NCc2ncc(S(=O)(=O)CC)cn2)nc2cnc(-c3c(OC)ncnc3C3CC3)nc21` [Example 184] and `CCS(=O)(=O)c1cnc(CNc2nc3cnc(-c4c(OC)ncnc4C4CC4)nc3n([C@@H](C)C(F)(F)F)c2=O)nc1` [Example 187] are within 1.5-fold of each other in IC50: 295 nM for the first, 255 nM for the second.

Going from `COC(=O)c1ccc(CNc2nc3cnc(-c4c(C)ncnc4C4CC4)nc3n([C@@H](C)C3CC3)c2=O)cc1` [Example 216] to `Cc1ncnc(C2CC2)c1-c1ncc2nc(NCc3ccc(C(=O)O)cc3)c(=O)n([C@@H](C)C3CC3)c2n1` [Example 200], the IC50 falls from 1380 nM to 855 nM (1.6-fold). The second is the more potent here.

Compared with `CCS(=O)(=O)c1ccc(CNc2nc3cnc(-c4c(OC)ncnc4C4CC4)nc3n([C@H]3CCC[C@@H]3C#N)c2=O)nc1` [Example 109], `CCS(=O)(=O)c1ccc(CNc2nc3cnc(-c4c(OC)ncnc4C4CC4)nc3n([C@H]3CCC[C@H]3C#N)c2=O)nc1` [Example 108] is 2.6-fold lower in IC50: 790 nM for the first, 300 nM for the second.

First: CCS(=O)(=O)c1ccc(CNc2nc3cnc(-c4c(C)ncnc4C4CC4)nc3n(CC(C)(C)F)c2=O)nc1 [Example 105]
Second: CC[C@H](C)n1c(=O)c(NCc2ccc(S(=O)(=O)CC)cn2)nc2cnc(-c3c(C)ncnc3C3CC3)nc21 [Example 20]
The IC50 of the first is 4.8-fold higher: 1600 nM for the first, 330 nM for the second.

`CCS(=O)(=O)c1sc(CNc2nc3cnc(-c4c(C)ncnc4C4CC4)nc3n([C@@H](C)C3CC3)c2=O)nc1C` [Example 114] and `CCS(=O)(=O)c1ccc(CNc2nc3cnc(-c4c(C)nc(N)nc4C4CC4)nc3n([C@@H](C)C3CC3)c2=O)nc1` [Example 217] are within 1.5-fold of each other in IC50: 107 nM for the first, 160 nM for the second.

Going from `CC[C@@H](C)n1c(=O)c(NCc2ccc(S(C)(=O)=O)cc2)nc2cnc(-c3c(C)ncnc3C3CC3)nc21` [Example 189] to `CCC(C)n1c(=O)c(NCc2ccc(S(C)(=O)=O)cc2)nc2cnc(-c3c(C)ncnc3C3CC3)nc21` (stereo not shown) [Example 14], the IC50 rises from 120 nM to 310 nM (2.6-fold). The first is the more potent here.

Compared with `CC[C@@H](C)n1c(=O)c(NCc2ccc(S(N)(=O)=O)cn2)nc2cnc(-c3c(C)nc(N)nc3C3CC3)nc21` [Example 129], `CC[C@H](C)n1c(=O)c(NCc2ccc(S(N)(=O)=O)cn2)nc2cnc(-c3c(C)ncnc3C3CC3)nc21` [Example 98] is 13-fold lower in IC50: 2500 nM for the first, 195 nM for the second. The second is the more potent here.

Compared with `CCS(=O)(=O)c1ccc(CNc2nc3cnc(-c4c(C)ncnc4C(C)C)nc3n(C(C)C)c2=O)nc1` [Example 178], `CCCc1ncnc(C)c1-c1ncc2nc(NCc3ccc(S(=O)(=O)CC)cn3)c(=O)n(C(C)C)c2n1` [Example 172] is 1.8-fold higher in IC50: 240 nM for the first, 440 nM for the second.

`Cc1ncnc(C2CC2)c1-c1ncc2nc(NCc3ccc(S(C)(=O)=O)cn3)c(=O)n(CC3CC3)c2n1` [Example 247] and `COc1ncnc(C2CC2)c1-c1ncc2nc(NCc3ccc(S(N)(=O)=O)cn3)c(=O)n(CC3CCC3)c2n1` [Example 116] are within 1.5-fold of each other in IC50: 385 nM for the first, 300 nM for the second.

`CCS(=O)(=O)c1ccc(CNc2nc3cnc(-c4c(C5CC5)ncnc4C4CC4)nc3n([C@@H](C)C3CC3)c2=O)nc1` [Example 73] and `CCS(=O)(=O)c1ccc(CNc2nc3cnc(-c4c(C5CC5)ncnc4C4CC4)nc3n([C@H](C)C(C)C)c2=O)nc1` [Example 25] are within 1.5-fold of each other in IC50: 290 nM for the first, 410 nM for the second.

First: COc1ncnc(C2CC2)c1-c1ncc2nc(NCc3ccc(S(C)(=O)=O)cn3)c(=O)n(C(C)C)c2n1 [Example 149]
Second: CNS(=O)(=O)c1ccc(CNc2nc3cnc(-c4c(OC)ncnc4C4CC4)nc3n(C(C)C)c2=O)nc1 [Example 155]
The IC50 of the first is 1.6-fold higher: 305 nM for the first, 185 nM for the second. The second is the more potent here.

First: CCS(=O)(=O)c1ccc(CNc2nc3cnc(-c4cnc(N)nc4C(C)C)nc3n(C(C)C)c2=O)nc1 [Example 140]
Second: CCS(=O)(=O)c1ccc(CNc2nc3cnc(-c4c(C)ncnc4C4CC4)nc3n([C@H](C)C(C)C)c2=O)nc1 [Example 67]
The IC50 of the first is 2-fold higher: 730 nM for the first, 370 nM for the second.

Compared with `Cc1ncnc(C2CC2)c1-c1ncc2nc(NCc3ccc4c(c3)CCS4(=O)=O)c(=O)n([C@@H](C)C3CC3)c2n1` [Example 212], `CNS(=O)(=O)c1ccc(CNc2nc3cnc(-c4c(C)ncnc4C4CC4)nc3n([C@@H](C)C3CC3)c2=O)cc1` [Example 135] is 2-fold higher in IC50: 120 nM for the first, 240 nM for the second. The first is the more potent here.

`Cc1ncnc(C2CC2)c1-c1ncc2nc(NCc3ccc(S(=O)(=O)CC#N)cc3)c(=O)n(C(C)C)c2n1` [Example 171] and `COc1ncnc(C2CC2)c1-c1ncc2nc(NCc3ccc(S(N)(=O)=O)cc3)c(=O)n(C(C)C)c2n1` [Example 151] are within 1.5-fold of each other in IC50: 200 nM for the first, 255 nM for the second.

Going from `COc1cc(C#N)ccc1CNc1nc2cnc(-c3c(C)ncnc3C3CC3)nc2n([C@@H](C)C2CC2)c1=O` [Example 133] to `CCc1ncnc(C2CC2)c1-c1ncc2nc(NCc3ccc(S(C)(=N)=O)cc3)c(=O)n([C@@H](C)C3CC3)c2n1` (stereo partly shown) [Example 210], the IC50 falls from 1040 nM to 150 nM (6.9-fold).

`CCS(=O)(=O)c1ccc(CNc2nc3cnc(-c4c(C5CC5)ncnc4C4CC4)nc3n(C3CCCC3)c2=O)nc1` [Example 13] and `CCc1ncnc(C2CC2)c1-c1ncc2nc(NCc3ccc(S(=O)(=O)CC)cn3)c(=O)n(C3CCCC3)c2n1` [Example 3] are within 1.5-fold of each other in IC50: 300 nM for the first, 230 nM for the second.

Compared with `COc1ncnc(C2CC2)c1-c1ncc2nc(NCc3ccc(S(C)(=O)=O)cn3)c(=O)n([C@@H](C)C(F)(F)F)c2n1` [Example 181], `COc1ncnc(C2CC2)c1-c1ncc2nc(NCc3ccc(S(C)(=O)=O)cn3)c(=O)n(C3CCC3)c2n1` [Example 241] is 1.8-fold higher in IC50: 175 nM for the first, 310 nM for the second.

Going from `CCS(=O)(=O)c1ccc(CNc2nc3cnc(-c4c(OC)ncnc4C4CC4)nc3n([C@H]3C[C@@H]3C(F)(F)F)c2=O)nc1` (stereo in doubt) [Example 110] to `CCS(=O)(=O)c1ccc(CNc2nc3cnc(-c4c(OC)ncnc4C4CC4)nc3n(C3(C)CC3(F)F)c2=O)nc1` (stereo not shown) [Example 36], the IC50 falls from 1350 nM to 880 nM (1.5-fold). The second is the more potent here.

Going from `CC(=O)N1CCC(CNc2nc3cnc(-c4c(C)ncnc4C4CC4)nc3n([C@@H](C)C3CC3)c2=O)CC1` [Example 166] to `CCS(=O)(=O)N1CC[C@@H](CNc2nc3cnc(-c4c(C)ncnc4C4CC4)nc3n([C@@H](C)C3CC3)c2=O)C1` [Example 211], the IC50 falls from 1600 nM to 225 nM (7.1-fold). The second is the more potent here.

`CC[C@H](C)n1c(=O)c(NCc2ccc(S(=O)(=O)CC)cn2)nc2cnc(-c3c(C)ncnc3C(F)(F)F)nc21` [Example 58] and `CC[C@@H](C)n1c(=O)c(NCc2ccc(S(=O)(=O)CC)cn2)nc2cnc(-c3c(C)ncnc3C3CC3)nc21` [Example 84] are within 1.5-fold of each other in IC50: 420 nM for the first, 400 nM for the second.

`CC[C@@H](C)n1c(=O)c(NCc2ccc(S(N)(=O)=O)cn2)nc2cnc(-c3c(C)ncnc3C3CC3)nc21` [Example 235] and `Cc1ncnc(C2CC2)c1-c1ncc2nc(NCc3ccc(S(N)(=O)=O)cn3)c(=O)n(CC(C)C)c2n1` [Example 254] are within 1.5-fold of each other in IC50: 425 nM for the first, 455 nM for the second.

First: CCS(=O)(=O)c1ccc(CNc2nc3cnc(-c4c(C)ncnc4C4CC4)nc3n([C@H]3CCC[C@H]3C#N)c2=O)nc1 [Example 111]
Second: CCS(=O)(=O)c1ccc(CNc2nc3cnc(-c4c(C)ncnc4C4CC4)nc3n([C@H]3CCC[C@@H]3C#N)c2=O)nc1 [Example 112]
The IC50 of the first is 2-fold lower: 460 nM for the first, 920 nM for the second. The first is the more potent here.

`CCS(=O)(=O)c1ccc(CNc2nc3cnc(-c4c(OC)ncnc4C4CC4)nc3n(CC(C)C)c2=O)cn1` [Example 154] and `COc1ncnc(C2CC2)c1-c1ncc2nc(NCc3ccc(S(N)(=O)=O)cn3)c(=O)n(CC(C)C)c2n1` [Example 255] are within 1.5-fold of each other in IC50: 295 nM for the first, 285 nM for the second.

Going from `CCS(=O)(=O)N1CCC(CNc2nc3cnc(-c4c(OC)ncnc4C4CC4)nc3n(C(C)C)c2=O)CC1` [Example 131] to `CCC(CC)n1c(=O)c(NCc2ccc(S(=O)(=O)CC)cn2)nc2cnc(-c3c(C4CC4)ncnc3C3CC3)nc21` [Example 16], the IC50 rises from 205 nM to 320 nM (1.6-fold).

For `CCS(=O)(=O)c1ccc(CNc2nc3cnc(-c4c(C5CC5)ncnc4C4CC4)nc3n([C@H]3CCOC3)c2=O)cc1` [Example 174], the IC50 was 275 nM.
